Source: publication PMC9007951, “Systematically evaluating DOTATATE and FDG as PET immuno-imaging tracers of cardiovascular inflammation” (Scientific Reports, 2022)

Experiments:
Assay type in all cases: in vivo, mice
[1] = Blood half-life of [^64Cu]Cu-DOTATATE, gamma counting of blood, two-phase decay fit; conditions: for %fast: two-phase decay fit of blood radioactivity over 120 min; for %slow / Weighed t1/2 (weighted blood half-life) / t1/2 fast / t1/2 slow: two-phase decay fit
Method: (§1) Wild-type and atherosclerotic animals were injected with approximately 1.85 MBq of [^64Cu]Cu-DOTATATE and euthanized at either 1, 5, 15, 30, 60 or 120 min after injection (Supplementary Fig. S1A) to evaluate the tracer’s biodistribution. After euthanasia, an insulin syringe was used to collect blood samples from the right ventricle. Blood samples were used for the establishment of pharmacokinetics profile. Mice were then perfused with 20 mL of phosphate-buffered saline (PBS) and tissues of interest (heart, aorta, bone marrow, spleen, liver, stomach, bladder, kidneys, intestines, lungs, adrenal gland, muscles and pancreas) were harvested. Tissues were blotted for gamma counting on a Wizard2 2480 automatic gamma counter (Perkin Elmer, Waltham, MA). Values were corrected for decay and normalized to tissue weight to express radioactivity concentration as percentage injected dose per gram (%ID/g). […] To investigate the tracer’s distribution within different blood compartments, after gamma counting, 100 μL of blood were spun down at 2000 g for 15 min at 4 °C. Plasma (supernatant) and cells (pellet) were gamma counted and expressed as percentage of total activity. The remainder of the blood was separated using Lymphoprep density gradient medium (Nycomed Pharma, Zurich, Switzerland) following manufacturer’s instructions. Percentage of activity in mononuclear and polynuclear cells was calculated.

[2] = [^64Cu]Cu-DOTATATE distribution in blood fractions (plasma vs cells); conditions: 120 min after radiotracer injection, mean ± SEM, N = 5
Method: as §1, with “The remainder of the blood was separated using Lymphoprep density gradient medium (Nycomed Pharma, Zurich, Switzerland) following manufacturer’s instructions.” left out

[3] = Ex vivo gamma counting of whole aorta after PET/CT; conditions: female, mouse, iv, 5.55 MBq, total radioactivity, median, N = 4
Method: as §1, with “S1A)” for “Wild-type and atherosclerotic animals were injected with approximately 1.85 MBq of [^64Cu]Cu-DOTATATE and euthanized at either 1, 5, 15, 30, 60 or 120 min after injection (Supplementary Fig. S1A)”, “calculated. […]” for “calculated.”

With `C[C@@H](O)[C@H](NC(=O)[C@@H]1CSSC[C@H](NC(=O)[C@@H](Cc2ccccc2)NC(=O)CN2CCN(CC(=O)O)CCN(CC(=O)O)CCN(CC(=O)O)CC2)C(=O)N[C@@H](Cc2ccc(O)cc2)C(=O)N[C@H](Cc2c[nH]c3ccccc23)C(=O)N[C@@H](CCCCN)C(=O)N[C@@H]([C@@H](C)O)C(=O)N1)C(=O)O` [[^64Cu]Cu-DOTATATE, metal not drawn] the “%fast” value ([1]; Apoe^-/- mice, N = 6) was 11.27%, the “%slow” value ([1]; Apoe^-/- mice, N = 6) was 88.73% and the “Weighed t1/2 (weighted blood half-life)” value ([1]; Apoe^-/- mice, N = 6) was 6.83 min. The t1/2 fast ([1]; Apoe^-/- mice, N = 6) was 0.557 min, the t1/2 slow ([1]; Apoe^-/- mice, N = 6) was 7.627 min and the “%fast” value ([1]; C57Bl/6 mice, N = 7) was 79.14%. For the same compound, the “%slow” value ([1]; C57Bl/6 mice, N = 7) was 20.86%, the “Weighed t1/2 (weighted blood half-life)” value ([1]; C57Bl/6 mice, N = 7) was 4.83 min and the t1/2 fast ([1]; C57Bl/6 mice, N = 7) was 1.939 min. For the same compound, the t1/2 slow ([1]; C57Bl/6 mice, N = 7) was 15.81 min, the “blood radioactivity contained in plasma” value ([2]; atherosclerotic Apoe^−/− mice) was 88.7 ± 0.9% and the “blood radioactivity contained in plasma” value ([2]; control C57Bl/6 mice) was 83.4 ± 0.6%. The tissue uptake ([3]; atherosclerotic Apoe^−/− mice after PET/CT) was 7.4 %ID/g and the tissue uptake ([3]; control C57Bl/6 mice after PET/CT) was 3.5 %ID/g.
